Measured values as given in patent US11773132B2, “Cyclic di-nucleotides as stimulator of interferon genes modulators” (Beijing Xuanyi PharmaSciences Co., Ltd., priority 2017, dated 2023).

Legend:
Format in all cases: cell-based
hSTING R232 [1] = molecular target: T1, hSTING R232 (Homo sapiens, UniProt Q86WV6, H232R); assay: 293T-Dual hSTING R232 cells, IRF activation (Quanti-Blue); conditions: 293T-Dual hSTING R232 cell line, 24 h, OD 620 nm
T1 construct: host or cells: 293T-Dual hSTING R232 cells
Procedure: (§1) A test compound with a serial of dilution was prepared in complete medium, and 50 μL of the compound were added to the corresponding well, and incubated with the cells at 37° C. incubator for 24 hr.
To determine the effect on interferon regulatory factor (IRF) activation, 20 μL of cell culture supernatant was transferred into a fresh 96-well plate, 150 μL of Quanti-Blue was added to each well and incubated at 37° C. for 25 min. OD at 620 nm was recorded, and EC50 was calculated with 4 parameter logistic equation.

hSTING R232 [2] = molecular target: T1, hSTING R232; assay: 293T-Dual hSTING R232 cells, interferon-β expression (Quanti-Luc); conditions: 293T-Dual hSTING R232 cell line, 24 h, read-out: IFNb EC50
Procedure: as §1
To evaluate the effect on interferon-β expression, 20 μL of cell culture supernatant were transferred into a fresh 96-half area-well white plate, 30 μL of Quanti-Luc were added to each well, and luminescence was measured immediately with a luminometer. Four parameter logistic equation was used to calculate EC50 (Table 4).

Human STING [3] = molecular target: T2, Human STING (Homo sapiens, UniProt Q86WV6, G230A/H232R/R293Q/R71H); assay: EC50 in THP1-Dual cells, IRF3 reporter (QUANTI-Luc); conditions: THP1 cell line, 24 h
T2 construct: host or cells: THP1-Dual cells (human monocytic reporter line)
Procedure: (§2) THP1-Dual cells (obtained from Invivogen) are maintained in RPM11640 medium with 100 µg/ml of Zeocin and 10 µg/ml of blasticidin at 37° C., 5% CO2, compounds were dissolved in sterile PBS (pH7.4) as 20 mM, 0.5×10^6 cells/ml of THP-1 Dual cells were incubated with indicated concentrations of a compound for 24 hours at 37° C., 5% CO2 incubator. QUANTI-Luc and QUANTI-Blue were prepared and used following the manufacturer's instructions. 10 ul of cell culture supernatant were mixed with QUANTI-Luc and immediately measured using Luminometer; 20 ul of supernatant were mixed with QUANTI-Blue, and incubated at 37° C. for 30 minutes, and read at OD620. EC50 was calculated using Prism with 4-parameter dose-response curve fitting (Table 3).

Human STING [4] = molecular target: T2, Human STING; assay: EC50 in THP1-Dual cells, NF-kB reporter (QUANTI-Blue); conditions: THP1 cell line, 24 h, OD620, read-out: ECs50 NF-kB
Procedure: as §2

Human STING [5] = molecular target: T2, Human STING; assay: THP1-Dual cell assay, IRF pathway reporter luminescence readout (QUANTI-Luc); conditions: THP1-Dual cells, 24 h, 30 μM, Table 2
Procedure: STING pathway activation by the compounds described herein was measured using THP-1 dual cells. These cells are THP1 monocytes that have been modified to be reporters for the IRF pathway, which is activated by STING agonists in these cells.
THP1-Dual cells (obtained from Invivogen) are maintained in growth medium with 100 ug/ml of Zeocin and 10 ug/ml of blasticidin at 37° C., 5% CO2, the cells were passaged every 3 days by inoculating 7×10^5 cells per ml and centrifuged at 1000 rpm for 5 min. Supernatant was removed and THP-1 Dual cells were re-suspended at 5×10^5 cells/ml in fresh pre-warmed growth medium.
[…]. 50 ul of Cell suspension (about 2.5×10^4 cells per well) was added in 384-well plate, which was incubated for 24 hours at 37° C., 5% CO2. QUANTI-Luc was prepared and used following the manufacturer's instructions, 5×10^3 cells per well were seeded in 40 μl medium and incubated overnight. Luminometer was set with the following parameters: 50u of injection, end-point measurement with a 4 second start time and 0.1 second reading time. 10 ul of THP-1 Dual cell culture medium per well was added into a 96-well white (opaque) plate, luminescence was measured and calculated.

T2 sequence (Q86WV6 whole entry R71H/G230A/H232R/R293Q): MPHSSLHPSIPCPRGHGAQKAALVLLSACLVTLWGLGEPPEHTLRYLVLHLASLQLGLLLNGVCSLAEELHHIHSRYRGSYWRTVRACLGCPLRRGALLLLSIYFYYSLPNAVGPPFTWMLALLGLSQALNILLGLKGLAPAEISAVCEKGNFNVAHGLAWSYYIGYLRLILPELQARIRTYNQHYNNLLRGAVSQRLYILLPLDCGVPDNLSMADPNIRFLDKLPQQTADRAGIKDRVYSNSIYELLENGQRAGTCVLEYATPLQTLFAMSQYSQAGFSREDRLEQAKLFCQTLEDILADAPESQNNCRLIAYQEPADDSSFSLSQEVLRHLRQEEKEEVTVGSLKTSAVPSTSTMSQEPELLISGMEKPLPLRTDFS
T1 sequence (Q86WV6 whole entry H232R): as the sequence (Q86WV6 whole entry R71H/G230A/H232R/R293Q) above, with H71R, A230G, Q293R counted along it

Structure (SMILES) | EC50 (hSTING R232 [1]) [µM] | EC50 (hSTING R232 [2]) [µM] | EC50 (Human STING [3]) [µM] | EC50 (Human STING [4]) [µM] | Readout Average (Human STING [5]) | Readout n = 1 (Human STING [5]) | Readout n = 2 (Human STING [5])
BP1(=O)OC[C@H]2O[C@@H](n3cnc4c(N)ncnc43)[C@H](F)[C@@H]2OP(=O)(S)OC[C@H]2O[C@@H](n3cnc4c(N)ncnc43)[C@H](O1)C2F (some centres unmarked) [Mixtures of H1, H2, H3, and H4] | 33.6 | 84.4 | > 100 | > 100 | – | – | –
BP1(=O)OC[C@H]2O[C@@H](n3cnc4c(=O)[nH]c(N)nc43)[C@H](F)[C@@H]2OP(=O)(S)OCC2O[C@@H](n3cnc4c(N)ncnc43)[C@H](F)[C@@H]2O1 (single isomer, unassigned) [Compound B3] | 0.32 | 2.97 | 0.91 | 5.22 | – | – | –
B[P@]1(=O)OC[C@H]2O[C@@H](n3cnc4c(N)ncnc43)[C@H](F)[C@@H]2OP(=O)(O)OC[C@H]2O[C@@H](n3cnc4c(N)ncnc43)[C@H](O1)C2F (some centres unmarked) [Compound I1] | 9.68 | 12.8 | 13.9 | 29 | – | – | –
BP1(=O)OCC2O[C@@H](n3cnc4c(N)ncnc43)[C@H](F)[C@@H]2OP(=O)(S)OC[C@H]2O[C@@H](n3cnc4c(=O)[nH]c(N)nc43)[C@H](F)[C@@H]2O1 (single isomer, unassigned) [Compound C3] | 0.085 | 0.16 | 0.37 | 4.56 | – | – | –
BP1(=O)OCC2O[C@@H](n3cnc4c(N)ncnc43)[C@H](F)[C@@H]2OP(=O)(O)OC[C@H]2O[C@@H](n3cnc4c(=O)[nH]c(N)nc43)[C@H](F)[C@@H]2O1 (stereo partly drawn) [Compound F1, ((2R,3R,3aR,5R,7aS,9R,10R,10aR,14aR)-2-(2-amino-6-oxo-1,6-dihydro-9H-purin-9-yl)-9-(6-amino-9H-purin-9-yl)-3,10-difluoro-12-hydroxy-5,12-dioxidooctahydro-2H,7H-difuro[3,2-d:3′,2′-j][1,3,7,9]tetraoxa[2,8]diphosphacyclododecin-5-yl)trihydroborate] | 0.63 | 2.44 | 1.16 | 6.59 | – | – | –
B[P@]1(=O)OC[C@H]2O[C@@H](n3cnc4c(N)ncnc43)[C@H](F)[C@@H]2OP(=O)(O)OC[C@H]2O[C@@H](n3cnc4c(N)ncnc43)[C@H](O1)C2F (some centres unmarked) [Compound I2] | 5.43 | 11.2 | 6.27 | 34.7 | – | – | –
BP1(=O)OC[C@H]2O[C@@H](n3cnc4c(=O)[nH]c(N)nc43)[C@H](F)[C@@H]2OP(=O)(S)OCC2O[C@@H](n3cnc4c(N)ncnc43)[C@H](F)[C@@H]2O1 (single isomer, unassigned) [Compound B2] | 9.82 | 29.1 | 14.7 | 74.6 | – | – | –
BP1(=O)OCC2O[C@@H](n3cnc4c(N)ncnc43)[C@H](F)[C@@H]2OP(=O)(S)OC[C@H]2O[C@@H](n3cnc4c(=O)[nH]c(N)nc43)[C@H](F)[C@@H]2O1 (single isomer, unassigned) [Compound C4] | 0.34 | 0.7 | 0.63 | 6.29 | – | – | –
BP1(=O)OC[C@H]2O[C@@H](n3cnc4c(=O)[nH]c(N)nc43)[C@H](F)[C@@H]2OP(=O)(S)OCC2O[C@@H](n3cnc4c(N)ncnc43)[C@H](F)[C@@H]2O1 (single isomer, unassigned) [Compound B4] | 0.34 | 2.27 | 0.61 | 7.61 | – | – | –
BP1(=O)OC[C@H]2O[C@@H](n3cnc4c(NCc5ccccc5)ncnc43)[C@H](OP(=O)(S)OC[C@H]3O[C@@H](n4cnc5c(NCc6ccccc6)ncnc54)[C@H](O)[C@@H]3O1)[C@@H]2O (single isomer, unassigned) [Compound D2] | – | – | – | – | 23960 | 18350 | 29570
BP1(=O)OC[C@H]2O[C@@H](n3cnc4c(=O)[nH]c(N)nc43)[C@H](F)[C@@H]2OP(=O)(S)OCC2O[C@@H](n3cnc4c(N)ncnc43)[C@H](F)[C@@H]2O1 (single isomer, unassigned) [Compound B1] | 11.8 | 37.5 | 28.2 | > 100 | – | – | –
[BH3-][P+]1(O)OCC2OC(n3cnc4c(N)ncnc43)C(OP(=O)(O)OCC3OC(n4cnc5c(N)ncnc54)C(F)C3O1)C2F (single isomer, unassigned) [Compound K1] | 0.72 | 2.3 | 0.91 | 7.47 | – | – | –
BP1(=O)OC[C@H]2O[C@@H](n3cnc4c(=O)[nH]c(N)nc43)[C@H](F)[C@@H]2OP(=O)(O)OCC2O[C@@H](n3cnc4c(N)ncnc43)[C@H](F)[C@@H]2O1 (stereo partly drawn) [Compound G1, ((2R,3R,3aR,5R,7aR,9R,10R,10aR,14aS)-9-(2-amino-6-oxo-1,6-dihydro-9H-purin-9-yl)-2-(6-amino-9H-purin-9-yl)-3,10-difluoro-12-hydroxy-5,12-dioxidooctahydro-2H,7H-difuro[3,2-d:3′,2′-j][1,3,7,9]tetraoxa[2,8]diphosphacyclododecin-5-yl)trihydroborate] | 0.41 | 0.92 | 0.63 | 4.3 | – | – | –
BP1(=O)OCC2O[C@@H](n3cnc4c(N)ncnc43)[C@H](F)[C@@H]2OP(=O)(O)OC[C@H]2O[C@@H](n3cnc4c(=O)[nH]c(N)nc43)[C@H](F)[C@@H]2O1 (stereo partly drawn) [Compound F2, ((2R,3R,3aR,5R,7aS,9R,10R,10aR,14aR)-2-(2-amino-6-oxo-1,6-dihydro-9H-purin-9-yl)-9-(6-amino-9H-purin-9-yl)-3,10-difluoro-12-hydroxy-5,12-dioxidooctahydro-2H,7H-difuro[3,2-d:3′,2′-j][1,3,7,9]tetraoxa[2,8]diphosphacyclododecin-5-yl)trihydroborate] | 1.2 | 2.78 | 1.56 | 10 | – | – | –
BP1(=O)OC[C@H]2O[C@@H](n3cnc4c(NCc5ccccc5)ncnc43)[C@H](OP(=O)(S)OC[C@H]3O[C@@H](n4cnc5c(NCc6ccccc6)ncnc54)[C@H](O)[C@@H]3O1)[C@@H]2O (single isomer, unassigned) [Compound D4] | – | – | – | – | 510240 | 534040 | 486440
BP1(=O)OCC2O[C@@H](n3cnc4c(N)ncnc43)[C@H](F)[C@@H]2OP(=O)(S)OC[C@H]2O[C@@H](n3cnc4c(=O)[nH]c(N)nc43)[C@H](F)[C@@H]2O1 (single isomer, unassigned) [Compound C2] | 0.23 | 0.43 | 0.43 | 4.93 | – | – | –
[BH3-][P+]1(O)OCC2OC(n3cnc4c(N)ncnc43)C(OP(=O)(O)OCC3OC(n4cnc5c(N)ncnc54)C(F)C3O1)C2F (single isomer, unassigned) [Compound K2] | 15 | 33 | 23 | 72.6 | – | – | –
BP1(=O)OCC2O[C@@H](n3cnc4c(N)ncnc43)[C@H](F)[C@@H]2OP(=O)(S)OC[C@H]2O[C@@H](n3cnc4c(=O)[nH]c(N)nc43)[C@H](F)[C@@H]2O1 (single isomer, unassigned) [Compound C1] | 34.3 | 75 | 88.4 | 67.1 | – | – | –
BP1(=O)OC[C@H]2O[C@@H](n3cnc4c(=O)[nH]c(N)nc43)[C@H](F)[C@@H]2OP(=O)(O)OCC2O[C@@H](n3cnc4c(N)ncnc43)[C@H](F)[C@@H]2O1 (stereo partly drawn) [Compound G2, ((2R,3R,3aR,5R,7aR,9R,10R,10aR,14aS)-9-(2-amino-6-oxo-1,6-dihydro-9H-purin-9-yl)-2-(6-amino-9H-purin-9-yl)-3,10-difluoro-12-hydroxy-5,12-dioxidooctahydro-2H,7H-difuro[3,2-d:3′,2′-j][1,3,7,9]tetraoxa[2,8]diphosphacyclododecin-5-yl)trihydroborate] | 0.94 | 1.77 | 1.08 | 8.52 | – | – | –
